Test results published in PubChem BioAssay AID248 (DTP/NCI, 2004).
“And” between values parts separate entries of the source, which are not always exact repeats. Identical values can stand only once. Inconclusive results and toxic doses are left out. Cut-off read from the data, not from the text of the source: active = T/C of 150% or more; inactive = T/C below 125%.

System: L1210 leukemia ip in BDF1 mice, survival T/C
Test: NCI In Vivo Anticancer Drug Screen. Data for tumor model L1210 Leukemia (intraperitoneal) in B6D2F1 (BDF1) mice
Settings: endpoint: mean survival time, higher = longer survival
Outline: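 Ratio derived from survival: compound-dosed mice over vehicle-dosed mice, all bearing a transplantable tumor.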

[1] = dose: 100.0 mg/kg/injection, schedule: Q04DX003 (ip), vehicle: Klucel (hydroxypropylcellulose) (HPC)
[2] = dose: 200.0 mg/kg/injection, schedule: Q04DX003 (ip), vehicle: Klucel (hydroxypropylcellulose) (HPC)
[3] = dose: 100.0 mg/kg/injection, schedule: Q04DX003 (ip), vehicle: saline with Tween-80
[4] = dose: 200.0 mg/kg/injection, schedule: Q04DX003 (ip), vehicle: saline with Tween-80
[5] = dose: 400.0 mg/kg/injection, schedule: Q04DX003 (ip), vehicle: saline with Tween-80
[6] = dose: 400.0 mg/kg/injection, schedule: Q04DX003 (ip), vehicle: Klucel (hydroxypropylcellulose) (HPC)
[7] = dose: 100.0 mg/kg/injection, schedule: Q01DX001 (ip), vehicle: saline
[8] = dose: 200.0 mg/kg/injection, schedule: Q01DX001 (ip), vehicle: saline
[9] = dose: 400.0 mg/kg/injection, schedule: Q01DX001 (ip), vehicle: saline
[10] = dose: 50.0 mg/kg/injection, schedule: Q01DX001 (ip), vehicle: saline
[11] = dose: 100.0 mg/kg/injection, schedule: Q01DX005 (ip), vehicle: saline
[12] = dose: 200.0 mg/kg/injection, schedule: Q01DX005 (ip), vehicle: saline
[13] = dose: 100.0 mg/kg/injection, schedule: Q01DX009 (ip), vehicle: saline with Tween-80
[14] = dose: 200.0 mg/kg/injection, schedule: Q01DX009 (ip), vehicle: saline with Tween-80
[15] = dose: 50.0 mg/kg/injection, schedule: Q01DX009 (ip), vehicle: saline with Tween-80
[16] = dose: 100.0 mg/kg/injection, schedule: Q01DX009 (ip), vehicle: Klucel (hydroxypropylcellulose) (HPC)
[17] = dose: 200.0 mg/kg/injection, schedule: Q01DX009 (ip), vehicle: Klucel (hydroxypropylcellulose) (HPC)
[18] = dose: 400.0 mg/kg/injection, schedule: Q01DX009 (ip), vehicle: Klucel (hydroxypropylcellulose) (HPC)

Measured: T/C

CC(=O)Nc1ccc2c(O)cc(S(=O)(=O)O)cc2c1
inactive: dose: 50.0 mg/kg/injection, schedule: Q01DX009 (ip), vehicle: saline 95 % of control | dose: 100.0 mg/kg/injection, schedule: Q01DX009 (ip), vehicle: saline 99 % of control | dose: 100.0 mg/kg/injection, schedule: Q04DX003 (ip), vehicle: saline 101 % of control | dose: 200.0 mg/kg/injection, schedule: Q01DX009 (ip), vehicle: saline 100 % of control | dose: 200.0 mg/kg/injection, schedule: Q04DX003 (ip), vehicle: saline 104 % of control | dose: 400.0 mg/kg/injection, schedule: Q04DX003 (ip), vehicle: saline 98 % of control

S=C(NCc1ccccc1)C(=S)NCc1ccccc1
inactive: [1] 105 % of control | [2] 98 % of control

CCC(C)NC(=O)C1C2CC3OC(=O)C1C3C2 (stereo unspecified)
inactive: [3] 106 % of control and 98 % of control | [4] 101 % of control and 98 % of control | [5] 95 % of control and 98 % of control

O=c1cc(-c2ccccc2)nc(SCc2ccccc2Cl)[nH]1
inactive: dose: 25.0 mg/kg/injection, schedule: Q01DX Z (ip), vehicle: methylcellulose (MC) 94 % of control

CNC(=S)Nc1ccc(C)c(Cl)c1
inactive: dose: 100.0 mg/kg/injection, schedule: Q04DX002 (ip), vehicle: saline 104 % of control | dose: 200.0 mg/kg/injection, schedule: Q04DX002 (ip), vehicle: saline 108 % of control | dose: 400.0 mg/kg/injection, schedule: Q04DX002 (ip), vehicle: saline 106 % of control

Cc1cc(C)c(-c2c(C)cc(C)c(N)c2C)c(C)c1N
inactive: dose: 12.5 mg/kg/injection, schedule: Q01DX009 (ip), vehicle: Klucel (hydroxypropylcellulose) (HPC) 90 % of control | dose: 25.0 mg/kg/injection, schedule: Q01DX009 (ip), vehicle: Klucel (hydroxypropylcellulose) (HPC) 93 % of control | dose: 50.0 mg/kg/injection, schedule: Q01DX009 (ip), vehicle: Klucel (hydroxypropylcellulose) (HPC) 103 % of control | [1] 109 % of control | [2] 95 % of control | [6] 97 % of control

Cn1nnc(CCCl)n1
inactive: [7] 110 % of control | [8] 91 % of control | [9] 95 % of control

CC1(C)N=C(N)N=C(N)N1c1cccc(CCCCc2cccc(S(=O)(=O)F)c2)c1
inactive: dose: 6.25 mg/kg/injection, schedule: Q01DX009 (ip), vehicle: saline sonified 100 % of control | dose: 6.25 mg/kg/injection, schedule: Q04DX003 (ip), vehicle: saline sonified 93 % of control | dose: 12.5 mg/kg/injection, schedule: Q01DX009 (ip), vehicle: saline sonified 88 % of control | dose: 12.5 mg/kg/injection, schedule: Q04DX003 (ip), vehicle: saline sonified 98 % of control | dose: 25.0 mg/kg/injection, schedule: Q01DX009 (ip), vehicle: saline sonified 92 % of control | dose: 25.0 mg/kg/injection, schedule: Q04DX003 (ip), vehicle: saline sonified 93 % of control

COc1ccc(CN2CCCN(Cc3ccc(OC)cc3OC)C2c2ccc(N(C)C)cc2Cl)c(OC)c1
inactive: [10] 97 % of control | [7] 101 % of control | [8] 95 % of control | [9] 95 % of control

N/C(=N\O)c1c(N)ncn1C1OC(CO)C(O)C1O (stereo unspecified)
inactive: [11] 97 % of control | [12] 100 % of control

O=C(O)C12C3C4CC5C3C1C5C42 (stereo unspecified)
inactive: [3] 98 % of control | [4] 106 % of control | [5] 97 % of control

COc1ccc(C(=O)CCC(=O)O)cc1
inactive: [13] 102 % of control | [14] 93 % of control | dose: 400.0 mg/kg/injection, schedule: Q01DX009 (ip), vehicle: saline with Tween-80 91 % of control

c1ccc(CSc2ncnc3nc[nH]c23)nc1
inactive: dose: 50.0 mg/kg/injection, schedule: Q04DX003 (ip), vehicle: saline sonified 116 % of control | dose: 100.0 mg/kg/injection, schedule: Q04DX003 (ip), vehicle: saline sonified 113 % of control

Oc1ccc2ccccc2c1C=NCC1CCC(CN=Cc2c(O)ccc3ccccc23)CC1 (stereo unspecified)
inactive: [7] 91 % of control | [8] 95 % of control | [9] 88 % of control

CCc1c(Nc2ccccc2C)[nH]c(N)nc1=S
inactive: dose: 100.0 mg/kg/injection, schedule: Q01DX Z (ip), vehicle: methylcellulose (MC) 101 % of control | dose: 200.0 mg/kg/injection, schedule: Q01DX Z (ip), vehicle: methylcellulose (MC) 95 % of control

CCc1cccc[n+]1CC(=O)c1ccc(-c2ccccc2)cc1
inactive: [1] 86 % of control

CC(C)(C)N1CC1C(=O)Sc1ccccc1 (stereo unspecified)
inactive: dose: 25.0 mg/kg/injection, schedule: Q04DX003 (ip), vehicle: Klucel (hydroxypropylcellulose) (HPC) 102 % of control | dose: 50.0 mg/kg/injection, schedule: Q04DX003 (ip), vehicle: Klucel (hydroxypropylcellulose) (HPC) 101 % of control | [1] 109 % of control

O=C1CC(=P(c2ccccc2)(c2ccccc2)c2ccccc2)C(=O)N1c1ccccc1
inactive: [15] 100 % of control | [16] 94 % of control | [13] 100 % of control | dose: 100.0 mg/kg/injection, schedule: Q04DX002 (ip), vehicle: Klucel (hydroxypropylcellulose) (HPC) 106 % of control | [17] 102 % of control | [14] 100 % of control | dose: 200.0 mg/kg/injection, schedule: Q04DX002 (ip), vehicle: Klucel (hydroxypropylcellulose) (HPC) 109 % of control | [18] 94 % of control | dose: 400.0 mg/kg/injection, schedule: Q04DX002 (ip), vehicle: Klucel (hydroxypropylcellulose) (HPC) 98 % of control

ClCc1c(Cl)c(Cl)c(Cl)c(CCl)c1Cl
inactive: [16] 98 % of control | [1] 96 % of control | [17] 96 % of control | [2] 98 % of control | [6] 102 % of control

CCOC(=O)NN=C1CCCC1
inactive: [15] 94 % of control | [13] 97 % of control

Cc1ccc(S(=O)(=O)C(Cl)(Cl)Cl)cc1
inactive: dose: 100.0 mg/kg/injection, schedule: Q01DX001 (ip), vehicle: Klucel (hydroxypropylcellulose) (HPC) 96 % of control | [16] 97 % of control | dose: 200.0 mg/kg/injection, schedule: Q01DX001 (ip), vehicle: Klucel (hydroxypropylcellulose) (HPC) 96 % of control | [17] 104 % of control | dose: 400.0 mg/kg/injection, schedule: Q01DX001 (ip), vehicle: Klucel (hydroxypropylcellulose) (HPC) 102 % of control | [18] 104 % of control

O=C(OCC1OC(n2ccc(=O)nc2[Se])C(OC(=O)c2ccccc2)C1OC(=O)c1ccccc1)c1ccccc1 (stereo unspecified)
inactive: [11] 89 % of control | [12] 96 % of control

COc1ccc(-c2c(N)nc(=S)[nH]c2C(=O)O)cc1
inactive: [16] 97 % of control | [1] 100 % of control | [17] 94 % of control | [2] 101 % of control | [18] 103 % of control | [6] 106 % of control

O=C(Nc1ccc(Br)cc1)c1ccc(C(=O)Nc2ccc(Br)cc2)cc1
inactive: [7] 94 % of control | [8] 100 % of control | [9] 94 % of control

CC(C)(C#N)C(C)(C)C#N
inactive: dose: 1.56 mg/kg/injection, schedule: Q04DX003 (ip), vehicle: saline with Tween-80 103 % of control | dose: 3.13 mg/kg/injection, schedule: Q04DX003 (ip), vehicle: saline with Tween-80 92 % of control | dose: 6.25 mg/kg/injection, schedule: Q04DX003 (ip), vehicle: saline with Tween-80 93 % of control and 92 % of control

O/N=C1\c2ccccc2-c2cccc(I)c21
inactive: dose: 100.0 mg/kg/injection, schedule: Q01DX001 (ip), vehicle: carboxymethylcellulose (CMC) 92 % of control | dose: 200.0 mg/kg/injection, schedule: Q01DX001 (ip), vehicle: carboxymethylcellulose (CMC) 92 % of control | dose: 400.0 mg/kg/injection, schedule: Q01DX001 (ip), vehicle: carboxymethylcellulose (CMC) 94 % of control

CCCCCCP(C)(=O)CCCCCC
inactive: dose: 100.0 mg/kg/injection, schedule: Q01DX001 (ip), vehicle: saline with Tween-80 99 % of control

O=[N+]([O-])c1ccc(C=Nc2cccc3ccccc23)s1
inactive: [1] 95 % of control | [2] 95 % of control | [6] 92 % of control

CC1(N)COP(=O)(NCCCN2CCOCC2)OC1 (stereo unspecified)
inactive: [7] 96 % of control | [8] 96 % of control | [9] 96 % of control

COC(=O)C(NC(=O)C(C)NC(=O)c1cnc2ccccc2n1)C(C)C (stereo unspecified)
inactive: [7] 91 % of control | [8] 98 % of control

CCNS(=O)(=O)O
inactive: dose: 25.0 mg/kg/injection, schedule: Q01DX001 (ip), vehicle: saline 98 % of control | [10] 104 % of control | [7] 107 % of control and 120 % of control | [8] 102 % of control | [9] 105 % of control
